SMILES strings stand for the structures. Where only a bound is given, the exact number is not on record here.

Factor XIa, sequence (P03951 388-625): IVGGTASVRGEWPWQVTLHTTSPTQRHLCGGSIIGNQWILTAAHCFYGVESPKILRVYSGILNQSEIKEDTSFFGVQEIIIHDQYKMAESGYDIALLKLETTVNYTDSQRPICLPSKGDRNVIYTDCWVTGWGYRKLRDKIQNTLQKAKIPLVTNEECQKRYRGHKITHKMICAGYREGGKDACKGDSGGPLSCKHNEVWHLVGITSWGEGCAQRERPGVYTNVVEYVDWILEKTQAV
Factor XIa, sequence (P03951 19-387 partner): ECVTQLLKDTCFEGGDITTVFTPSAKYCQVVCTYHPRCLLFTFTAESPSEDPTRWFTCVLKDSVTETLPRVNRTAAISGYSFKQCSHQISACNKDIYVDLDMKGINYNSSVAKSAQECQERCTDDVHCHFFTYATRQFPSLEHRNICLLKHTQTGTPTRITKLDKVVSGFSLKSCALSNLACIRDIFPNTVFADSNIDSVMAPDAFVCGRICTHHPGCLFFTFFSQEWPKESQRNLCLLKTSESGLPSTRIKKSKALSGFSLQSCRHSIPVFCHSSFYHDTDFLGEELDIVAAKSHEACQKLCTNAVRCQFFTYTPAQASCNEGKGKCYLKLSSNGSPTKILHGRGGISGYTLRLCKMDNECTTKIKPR

This experiment addresses Factor XIa (Homo sapiens (Human), UniProt P03951). Put plainly: Factor XIa enzyme inhibition assay (dose response, fluorogenic AMC substrate). The format is biochemical. Particulars: read-out: hFXIa IC50. How it is done:
• Assay buffer: 20 mM Hepes, pH 7.4; 150 mM NaCl; 0.02% Tween 20 • Compounds: 10 mM stocks in DMSO • Substrate: 20 mM Glp-Pro-Arg-AMC, 25 mg/2.3 mL H2O (store at +4° C.) [Factor XIa, thrombin, and trypsin] • 20 mM Pro-Phe-Arg-AMC (Bachem I-1295), 25 mg/2.2 mL H2O • or Boc-Leu-Gly-Arg-AMC (Bachem I-1105), 25 mg/2.07 mL H2O • (store at +4° C.) [Factor Xa] • Enzyme: Factor XIa; 0.25 μM in 50% glycerol (20 μg/mL) • Trypsin; 0.2 μM in 50% glycerol (4.8 μg/mL) • Thrombin; 0.2 μM in 50% glycerol (7.34 μg/mL) • Factor Xa; 0.2 μM in 50% glycerol (9.2 μg/mL) • These stocks are aliquoted (˜100 μL/aliquot) and stored at −20° C. Methods: • 1. Dilute the substrate to 100 μM in assay buffer (30 μL/6 mL). The enzyme is diluted to 0.5 nM just prior to use (12 μL/6 mL for Factor XIa; 15 μL/6 mL for all of the rest.) • 2. Pipette 50 μL of substrate into each well of the 96 well (12×8) microtiter plate. (Column 1 is used as the 100% activity control and receives no compound, and Column 12 is the blank and receives no enzyme.) Add an additional 46 μL to column 2. • 3. Pipette 4 μL of each compound into the appropriate well in column 2 of the plate (unknowns assayed in triplicate, standard assayed in duplicate). The final compound concentration will be […] of the stock. • 4. Serially two-fold dilute the compound by mixing the sample in column 2, removing 50 μL to the next well (column 3), mix and remove to column 4, etc. until column 11. After mixing column 11, remove 50 μL and discard. • 5. Pipette 50 μL of buffer into column 12. Initiate the reaction by adding 50 μL of enzyme solution to each well of columns 1-11 as rapidly as possible. • 6. Read the plate in a spectrophotometer (SpectraMax) at 30° C., wherein each well is measured every 60 s for 30 min. For Factor Xa assays, each well is measured every 1 min for a total of 60 min. • 7. For Factor XIa assays, the compounds are assayed, in duplicate, at 3 different starting concentrations, 20, 2, and 0.2 μM; 1:10, 1:100, and 1:1000 dilution of 10 mM stock or at 2, 0.2, and 0.02 μM; 1:100, 1:1000, and 1:10,000 dilution of 10 mM stock. Data for each concentration are combined for graphing and data fitting. • 8. Data can be used both for estimation of IC50 and for estimation of Kon.
Potential inhibitors of Factor XIa were evaluated using the following assay.
PyroGlu-Pro-Arg-7-methylaminocourin (AMC), available from CPC Scientific, Inc., is based on the substrate pyro-Glu-Pro-Arg-pNA (S-2366), available from Diapharma Group, Inc. (Columbus, Ohio), wherein the p-nitroanaline group is replaced with 7-methylaminocoumarin (AMC).
The final concentration of the substrate in the assay was 50 μM, and the final concentration of the enzyme was 0.25 nM. Inhibitors were tested by serial dilution over an appropriate range to yield a dose response curve for determination of the inhibitors' IC50 value. The assay mixture was read every minute for 30 minutes in order to generate progress curves. The plates were read in a Spectramax m5 Multimode Plate Reader (Molecular Devices LLC, Sunnyvale, Calif.). Dose response curves were fit to Equation 1 below in which A is the maximum inhibition, B is the minimum inhibition, C is the IC50, and D is the Hill coefficient. Y=[(A−B)/(1+(X/C)^D)]+B (Equation 1)
`CC[C@@H](NC(=O)N1C(=O)[C@H](Cc2ccnc(N)c2)[C@H]1C(=O)N(C)c1ccn(C)n1)c1ccsc1` [Compound 1-54, (2S,3R)-3-((2-aminopyridin-4-yl)methyl)-N2-(1-methyl-1H-pyrazol-3-yl)-N1-((R)-1-(thiophen-3-yl)propyl)-N2-methyl-4-oxoazetidine-1,2-dicarboxamide]: the IC50 (commonly the concentration needed to halve the response being measured) fell in the range of 10 to 100 nM.

For the compound `CC[C@H](c1cccc(Cl)c1)N(C)C(=O)N1C(=O)[C@H](Cc2ccnc(N)c2)[C@H]1C(=O)N(C)c1ccnn1C` [Compound 1-60, (2S,3R)-3-((2-aminopyridin-4-yl)methyl)-N2-(1-methyl-1H-pyrazol-5-yl)-N1-((R)-1-(3-chlorophenyl)propyl)-N1-methyl-N2-methyl-4-oxoazetidine-1,2-dicarboxamide], the IC50 lay within 10 to 100 nM.

With `CC[C@@H](NC(=O)N1C(=O)[C@H](Cc2cc(C)nc(NC)c2)[C@H]1C(=O)N(C)c1ccnn1C)c1ccccc1` [Compound 1-61, (2S,3R)-3-((2-methylamino-6-methylpyridin-4-yl)methyl)-N2-(1-methyl-1H-pyrazol-5-yl)-N1-((R)-1-phenylpropyl)-N2-methyl-4-oxoazetidine-1,2-dicarboxamide], the IC50 was 10 to 100 nM.

For `CNC(=O)N1C(=O)[C@H](Cc2ccnc(N)c2)[C@H]1C(=O)N(C)c1ccn(C)n1` [Compound 1-64, (2S,3R)-3-((2-aminopyridin-4-yl)methyl)-N2-(1-methyl-1H-pyrazol-3-yl)-N1-methyl-N2-methyl-4-oxoazetidine-1,2-dicarboxamide], the IC50 is 100 to 1000 nM.

`CC[C@@H](NC(=O)N1C(=O)[C@H](Cc2cc(C)nc(NC)c2)[C@H]1C(=O)N(C)c1cnn(C)c1)c1ccccc1` [Compound 1-66, (2S,3R)-3-((2-methylamino-6-methylpyridin-4-yl)methyl)-N2-(1-methyl-1H-pyrazol-4-yl)-N1-((R)-1-phenylpropyl)-N2-methyl-4-oxoazetidine-1,2-dicarboxamide]: the IC50 fell in the range of 10 to 100 nM.

In the case of `CCC[C@@H](NC(=O)N1C(=O)[C@H](Cc2ccnc(N)c2)[C@H]1C(=O)N(C)c1ccn(C)n1)C1CCCCC1` [Compound 1-68, (2S,3R)-3-((2-aminopyridin-4-yl)methyl)-N2-(1-methyl-1H-pyrazol-3-yl)-N1-((R)-1-cyclohexylbutyl)-N2-methyl-4-oxoazetidine-1,2-dicarboxamide], the IC50 was in the range of 10 to 100 nM.

For the compound `CCCC[C@@H](NC(=O)N1C(=O)[C@H](Cc2ccnc(N)c2)[C@H]1C(=O)N(C)c1ccn(C)n1)C1CCCCC1` [Compound 1-73, (2S,3R)-3-((2-aminopyridin-4-yl)methyl)-N2-(1-methyl-1H-pyrazol-3-yl)-N1-((R)-1-cyclohexylpentyl)-N2-methyl-4-oxoazetidine-1,2-dicarboxamide], the IC50 was 10 to 100 nM.

As to `CC[C@@H](NC(=O)N1C(=O)[C@H](Cc2cc(C)nc(N)c2)[C@H]1C(=O)N(C)c1nccn1C)C1CCCCC1` [Compound 1-75, (2S,3R)-3-((2-amino-6-methylpyridin-4-yl)methyl)-N2-(1-methyl-1H-imidazol-2-yl)-N1-((R)-1-cyclohexylpropyl)-N2-methyl-4-oxoazetidine-1,2-dicarboxamide], the IC50 lay in the range of 10 to 100 nM.

For `CC[C@@H](NC(=O)N1C(=O)[C@H](Cc2cc(C)nc(N)c2)[C@H]1C(=O)N(C)c1cn(C)cn1)C1CCCCC1` [Compound 1-76, (2S,3R)-3-((2-amino-6-methylpyridin-4-yl)methyl)-N2-(1-methyl-1H-imidazol-4-yl)-N1-((R)-1-cyclohexylpropyl)-N2-methyl-4-oxoazetidine-1,2-dicarboxamide], the IC50 is 10 to 100 nM.

With `CC[C@@H](NC(=O)N1C(=O)[C@H](Cc2ccnc(N)c2)[C@H]1C(=O)N(C)c1c(C)cnn1C)c1ccccc1` [Compound 1-78, (2S,3R)-3-((2-aminopyridin-4-yl)methyl)-N2-(1,4-dimethyl-1H-pyrazol-5-yl)-N1-((R)-1-phenylpropyl)-N2-methyl-4-oxoazetidine-1,2-dicarboxamide], the IC50 was in the range of 10 to 100 nM.

As for `CC[C@@H](NC(=O)N1C(=O)[C@H](Cc2cc(C)nc(N)c2)[C@H]1C(=O)N(C)c1nccn1C)c1ccc(C)nc1` [Compound 1-82, (2S,3R)-3-((2-amino-6-methylpyridin-4-yl)methyl)-N2-(1-methyl-1H-imidazol-2-yl)-N1-((R)-1-(6-methylpyridin-3-yl)propyl)-N2-methyl-4-oxoazetidine-1,2-dicarboxamide], the IC50 lay in the range of 10 to 100 nM.

Take `CC(C)[C@@H](NC(=O)N1C(=O)[C@H](Cc2ccnc(N)c2)[C@H]1C(=O)N(C)c1nccn1C)c1ccccc1` [Compound 1-85, (2S,3R)-3-((2-aminopyridin-4-yl)methyl)-N2-(1-methyl-1H-imidazol-2-yl)-N1-((R)-1-phenyl-2-methylpropyl)-N2-methyl-4-oxoazetidine-1,2-dicarboxamide]: the IC50 lay within 10 to 100 nM.

For the compound `CC[C@@H](NC(=O)N1C(=O)[C@H](Cc2ccnc(N)c2)[C@H]1C(=O)N(C)c1nccn1C)c1cccc(F)c1C` [Compound 1-86, (2S,3R)-3-((2-aminopyridin-4-yl)methyl)-N2-(1-methyl-1H-imidazol-2-yl)-N1-((R)-1-(3-fluoro-2-methylphenyl)propyl)-N2-methyl-4-oxoazetidine-1,2-dicarboxamide], the IC50 is 100 to 1000 nM.

As to `CC[C@H](NC(=O)N1C(=O)[C@H](Cc2ccnc(N)c2)[C@H]1C(=O)N(C)c1ccn(C)n1)c1cccc(Cl)c1` [Compound 1-93, (2S,3R)-3-((2-aminopyridin-4-yl)methyl)-N2-(1-methyl-1H-pyrazol-3-yl)-N1-((S)-1-(3-chlorophenyl)propyl)-N2-methyl-4-oxoazetidine-1,2-dicarboxamide], the IC50 lay within 10 to 100 nM.

For `CC[C@@H](NC(=O)N1C(=O)[C@H](Cc2ccnc(N)c2)[C@H]1C(=O)N(C)c1nccn1C)c1ccc(C)nc1C` [Compound 1-95, (2S,3R)-3-((2-aminopyridin-4-yl)methyl)-N2-(1-methyl-1H-imidazol-2-yl)-N1-((R)-1-(2,6-dimethylpyridin-3-yl)propyl)-N2-methyl-4-oxoazetidine-1,2-dicarboxamide], the IC50 lay in the range of 10 to 100 nM.

As for `CC[C@H](NC(=O)N1C(=O)[C@H](Cc2ccnc(N)c2)[C@H]1C(=O)N(C)c1nccn1C)c1ccc(C)nc1C` [Compound 1-96, (2S,3R)-3-((2-aminopyridin-4-yl)methyl)-N2-(1-methyl-1H-imidazol-2-yl)-N1-((S)-1-(2,6-dimethylpyridin-3-yl)propyl)-N2-methyl-4-oxoazetidine-1,2-dicarboxamide], the IC50 was 100 to 1000 nM.

For the compound `CC[C@@H](NC(=O)N1C(=O)[C@H](Cc2cc(C)nc(N)c2)[C@H]1C(=O)N(C)c1nccn1C)c1cc(C)ccc1C` [Compound 1-108, (2S,3R)-3-((2-amino-6-methylpyridin-4-yl)methyl)-N2-(1-methyl-1H-imidazol-2-yl)-N1-((R)-1-(2,5-dimethylphenyl)propyl)-N2-methyl-4-oxoazetidine-1,2-dicarboxamide], the IC50 lay within 10 to 100 nM.

Take `CC[C@@H](NC(=O)N1C(=O)[C@H](Cc2ccnc(N)c2)[C@H]1C(=O)N(C)c1nccn1C)c1ccc(C)cc1Cl` [Compound 1-116, (2S,3R)-3-((2-aminopyridin-4-yl)methyl)-N2-(1-methyl-1H-imidazol-2-yl)-N1-((R)-1-(2-chloro-4-methylphenyl)propyl)-N2-methyl-4-oxoazetidine-1,2-dicarboxamide]: the IC50 is less than 10 nM.

With `CC[C@@H](NC(=O)N1C(=O)[C@H](Cc2ccnc(N)c2)[C@H]1C(=O)N(C)c1nccn1C)c1ccc(F)c(C)c1` [Compound 1-117, (2S,3R)-3-((2-aminopyridin-4-yl)methyl)-N2-(1-methyl-1H-imidazol-2-yl)-N1-((R)-1-(3-methyl-4-fluorophenyl)propyl)-N2-methyl-4-oxoazetidine-1,2-dicarboxamide], the IC50 was less than 10 nM.

Source of the values: patent publication US11691962B2 (eXIthera Pharmaceuticals, Inc., priority 2018, dated 2023).
